# Results taken from patent publication US20120009674A1, “Use of a GSK-3 Inhibitor to Maintain Potency of Cultured Cells” (ABT Holding Company, priority 2005, published 2012).
# Key:
# [1] = Stability of BIO in culture, expansion media without cells (mass spectroscopy); format: physicochemical; settings: absence of cells, 72-hour period, 1 μM BIO, 37° C., 18% O2, 5% CO2, expansion media
# Oct-3A = assay: Western blot of Oct-3A protein in BIO treated MAPCs; format: cell-based, human; settings: BIO treated vs untreated MAPCs from the same donor, FIG. 3
# [2] = tested on: mouse embryonic stem (ES) cell; settings: mouse ES cells; Oct-3a, Rex-1 and Nanog expression; cited from earlier work
# [3] = tested on: human embryonic stem (ES) cell; settings: human ES cells; Oct-3a, Rex-1 and Nanog expression; cited from earlier work
# CDK2-cyclin A = CDK2-cyclin A (Homo sapiens, UniProt P24941); settings: at 10 μM; cited from earlier work
# [4] = tested on: mouse mesodermal stem cell line; settings: Chen, S., et al. (2003); cited from earlier work
structure (smiles),measurement,setting,value
"O=C1Nc2cc(Br)ccc2/C1=C1/Nc2ccccc2/C1=N\O [BIO, 6-bromoindirubin-3′-oxime]",BIO stable (native BIO remaining),[1],approximately 95%
same,Oct-3A protein level (Western blot),Oct-3A,increases or protects the amount of detectable Oct-3A
same,maintenance of ES cultures in an undifferentiated pluripotent state,[2],able to substitute for the addition of feeder cultures or addition of exogenous cytokines in maintaining the ES cultures in an undifferentiated pluripotent state
same,maintenance of ES cultures in an undifferentiated pluripotent state,[3],able to substitute for the addition of feeder cultures or addition of exogenous cytokines in maintaining the ES cultures in an undifferentiated pluripotent state
CN(C)CCC(=O)Nc1n[nH]c2nnc(-c3ccccc3)cc12 [Pyrazolopyridine 9],Inhibits CDK2-cyclin A,CDK2-cyclin A,A (90% at 10 μM)
CCCC(=O)Nc1n[nH]c2ncc(-c3ccccc3F)cc12 [Pyrazolopyridine 18],Inhibits CDK2-cyclin A,CDK2-cyclin A,A (95% at 10 μM)
c1nc2nc(Nc3ccc(N4CCOCC4)cc3)nc(NC3CCCCC3)c2[nH]1 [reversine],de-differentiation of committed myoblast,[4],"acted to “de-differentiate” the cell line from a committed myoblast, back to the multipotent precursor"
